Patent publication US20050267169A1, “Watersoluble prodrugs of propofol” (priority 2002, published 2005)
Values after ≈ are worked out from the molar mass of the structure shown. Structures can show the parent of a compound that is named as a salt. Marks after values point to notes of the source that are not given here.

What was measured:
GABAA receptor = test: In vitro [35S]TBPS binding assay, unwashed rat cortical membranes; conditions: for IC50: unwashed rat brain (cortical) membranes
Method: The data is expressed as a percentage of binding measured in the presence of solvent and are means of two experiments.
Rats were killed by decapitation and their brains rapidly removed on ice. The cerebral cortex was dissected out and homogenized in 50 volumes of ice-cold 50 mM Tris-citrate buffer (pH 7.4 at 25° C.) containing 100 mM CaCl2 using a Polytron PT 10 (setting 5, for 20 sec) and centrifuged at 20.000×g for 20 min. The resulting pellet was resuspended in 50 volumes of 50 mM Tris-citrate buffer (pH 7.4 at 25° C.) and used for the assay. [^35S]TBPS binding was determined in a final volume of 500 μL consisting of. 200 μL of tissue homogenate (0.20-0.25 mg protein), 50 μL of [^35S]TBPS (final assay concentration of 1 nM), 50 μl 2 M NaCl, 50 μL of drugs or solvent and buffer to volume. Incubations (25° C.) were initiated by addition of tissue and terminated 90 min later by a rapid filtration through glass-fiber filter strips (Whatman GF/B, Clifton, N.J.), which were rinsed twice with a 4 mL portion of ice-cold Tris-citrate buffer using a Cell Harvester filtration manifold (model M-24m Brandel, Gaithersburg, Md.). Filter bound radioactivity was quantitated by liquid scintillation spectrometry. […] Protein content was determined by the method of Lowry^20 using bovine serum albumin as a standard.

[1] = Solubility in deionized water at 25° C.; format: physicochemical; conditions: 72 h equilibration; for solubility at 72 h: thermodynamic from solid, read-out: Solubility (mg/mL) in deionized water
Method: The resulting mixture was vortexed for 10 min and then mechanically shaken in a thermostatic bath shaker (100 rpm) for 72 h to attain equilibrium. Next, the mixture was filtered through a 0.45 μm membrane filter (Millipore®, cellulose acetate) and an aliquot was diluted with an appropriate amount of water and analyzed for the aminoacid ester prodrug content spectrophotometrically at 210 nm. All of the manipulations were made without removal of the test tubes from the water bath, using thermostated pipettes, syringes, and buffer solutions. In Table II, as shown below, solubility data is compared with the data previously determined for propofol derivatives 2a-c (Trapani G. Latrofa A, Franco M, Lopedota A, Maciocco E, Liso G. 1998. Water-soluble salts of amino acid esters of the anesthetic agent propofol. Int. J. Pharm. 175: 195-204.).

[2] = Hydrolysis in phosphate buffer containing 50% rat serum at 37° C.; format: in vitro ADME; conditions: for half-life: 50% rat serum in phosphate buffer, 50% rat serum in pH 7.4 phosphate buffer, read-out: Half-lives at 37° C., 50% rat serum (converted); for Cleaved quantitatively to the parent drug in rat serum: rat serum solution
Method: Each reaction were initiated by adding 100 μL of the methanolic stock solution of compound under examination to 1.6 mL of preheated serum solution (final concentration about 1×10^−3 M) and the mixture was maintained in water bath at 37° C. At appropriate times, 100 μL samples were withdrawn and added to 500 μL of cold acetonitrile in order to deproteinize the serum. After mixing and centrifugation (10 min at 4000 rpm), 20 μL of the clear supematant were filtered through 0.2 μm membrane filter (Waters, PTFE 0.2 μm) and analyzed by HPLC.

[3] = Chemical hydrolysis in 0.05 M phosphate buffers at 37° C.; format: physicochemical; conditions: phosphate buffer, pH 7.4, 0.05 M phosphate buffer pH 7.4, 37° C.; for half-life: read-out: Half-lives at 37° C., pH 7.4 buffer (converted)
Method: The hydrolysis of the propofol esters 6a-d was studied in aqueous buffer solutions (0.05 M phosphate buffers; ionic strength of 0.5 maintained by adding a calculated amount of KCl) at pH values of 4, 6, and 7.4 and temperature of 37±0.2° C. The reactions were initiated by adding 100 μl of a stock solution of the ester (13 mg/mL methanol) to 20 mL of the buffer solution preheated at 37° C., in screw-capped test tubes (final concentration about 2.0×10^−4 M). The solutions were kept in a water bath at a constant temperature, and at appropriate intervals aliquots of 20 μL were withdrawn and analyzed by HPLC. Pseudo-first-order rate constants for the hydrolysis were determined from the slopes of linear plots of the logarithm of residual propofol ester against time.
The kinetics of hydrolysis of the derivatives 6a-d were determined in 0.05 M phosphate buffers at pHs 4.0, 6.0 and 7.4 at 37° C. as well as in rat serum solution and in the presence of porcine liver esterase.

porcine liver esterase = test: Hydrolysis in the presence of porcine liver esterase; format: in vitro ADME; conditions: for half-life: pig, porcine liver esterase, read-out: Half-lives at 37° C., Porcine liver esterase (13 U/mL) (converted); for half-life / Cleaved quantitatively to the parent drug in porcine liver esterase solution: 37° C.
Excerpt: Hydrolysis of compounds 6a-d in the presence of porcine liver esterase was followed using a reported procedure (Bonina F P, Arenare L, Palagiano F, Saija A, Nava F, Trombetta D, De Caprariis P. 1998. Synthesis, stability, and pharmacological evaluation of nipecotic acid prodrugs. J. Pharm. Sci. 8: 561-567.).

[4] = system: pentylenetetrazole-induced seizures; test: Anticonvulsant activity against pentylenetetrazole-induced seizures; format: in vivo, rat; conditions: for Anticonvulsant activity, No. of rats protected/tested: pentylenetetrazole 55 mg/kg i.p.
Method: The anticonvulsant activity against pentylenetetrazole-induced seizures (55 mg/kg) was measured.

[5] = molecular target: T1, human α1β2γ2 GABAA receptors (Homo sapiens, UniProt P14867+P18507+P47870); test: Voltage-clamp electrophysiology in Xenopus laevis oocytes; format: cell-based; conditions: GABA EC20 (2-10 μM); for Effect on GABA-evoked chloride currents: concentration-dependent
T1 construct: expressed in transfected cells; host or cells: Xenopus laevis oocytes (nuclear injection of cDNAs in pCDM8)
T1 sequence (P14867 28-456): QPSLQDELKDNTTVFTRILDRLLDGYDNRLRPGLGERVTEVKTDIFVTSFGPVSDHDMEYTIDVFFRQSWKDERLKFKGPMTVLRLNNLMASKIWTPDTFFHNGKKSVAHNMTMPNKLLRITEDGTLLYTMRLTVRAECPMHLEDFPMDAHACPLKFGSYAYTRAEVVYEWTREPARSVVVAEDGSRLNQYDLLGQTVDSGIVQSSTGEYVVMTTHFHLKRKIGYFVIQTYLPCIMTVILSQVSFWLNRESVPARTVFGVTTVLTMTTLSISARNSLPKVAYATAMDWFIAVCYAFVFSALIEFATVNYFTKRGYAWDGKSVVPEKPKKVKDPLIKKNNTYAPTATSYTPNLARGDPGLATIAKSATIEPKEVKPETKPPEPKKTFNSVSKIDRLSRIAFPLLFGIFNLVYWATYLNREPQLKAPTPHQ
T1 sequence (P47870 25-512 limits assumed): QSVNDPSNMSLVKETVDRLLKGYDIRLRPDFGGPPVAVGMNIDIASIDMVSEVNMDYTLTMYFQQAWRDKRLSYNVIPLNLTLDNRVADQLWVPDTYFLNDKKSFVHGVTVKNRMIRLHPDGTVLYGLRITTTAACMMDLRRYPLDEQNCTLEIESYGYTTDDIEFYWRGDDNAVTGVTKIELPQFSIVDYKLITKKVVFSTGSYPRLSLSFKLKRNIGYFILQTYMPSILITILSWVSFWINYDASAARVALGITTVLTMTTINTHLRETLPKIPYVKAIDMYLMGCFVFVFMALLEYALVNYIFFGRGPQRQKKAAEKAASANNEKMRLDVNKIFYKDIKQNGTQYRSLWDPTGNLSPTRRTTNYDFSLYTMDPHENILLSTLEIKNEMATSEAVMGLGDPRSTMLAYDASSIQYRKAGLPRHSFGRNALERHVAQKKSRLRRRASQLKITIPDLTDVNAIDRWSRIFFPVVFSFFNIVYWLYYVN
T1 sequence (P18507 40-475): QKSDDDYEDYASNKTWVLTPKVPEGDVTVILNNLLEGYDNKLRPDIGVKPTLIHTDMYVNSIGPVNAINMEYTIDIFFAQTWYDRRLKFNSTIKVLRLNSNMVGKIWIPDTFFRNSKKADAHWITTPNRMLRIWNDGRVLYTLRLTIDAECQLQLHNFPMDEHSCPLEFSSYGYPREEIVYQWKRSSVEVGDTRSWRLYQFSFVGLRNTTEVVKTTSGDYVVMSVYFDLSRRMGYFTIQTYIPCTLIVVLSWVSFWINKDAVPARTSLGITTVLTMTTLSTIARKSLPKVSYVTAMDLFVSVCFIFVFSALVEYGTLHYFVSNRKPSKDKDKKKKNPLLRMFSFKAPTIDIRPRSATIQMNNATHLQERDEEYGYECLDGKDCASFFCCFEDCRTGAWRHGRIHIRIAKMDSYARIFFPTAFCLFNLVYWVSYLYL
Method: Values are expressed as mean (6-13 different oocytes)±s.e.m. percentage of the potentiation of the control response to GABA (EC20, 2-10 μM).
Complementary DNAs encoding the human α1, β2, and γ2 GABAA receptor subunits were subcloned into the pCDM8 expression vector (Invitrogen, San Diego, Calif.). The cDNAs were purified with the Promega Wizard Plus Miniprep DNA Purification System (Madison, Wis.) and then resuspended in sterile distilled water, divided into portions, and stored at −20° C. until used for injection. Stage V and VI oocytes were manually isolated from sections of Xenopus laevis ovary, placed in modified Barth's saline (MBS) containing 88 mM NaCl, 1 mM KCl, 10 mM Hepes-NaOH buffer (pH 7.5), 0.82 mM MgSO4, 2.4 mM NaHCO3, 0.91 mM CaCl2, and 0.33 mM Ca(NO3)2 and treated with 0.5 mg/mL of collagenase Type IA (Sigma) in collagenase buffer (83 mM NaCl, 2 mM KCl, 1 mM MgCl2, 5 mM Hepes-NaOH buffer, pH 7.5) for 10 min at room temperature, to remove the follicular layer. A mixture of GABAA receptor α1, β2, and γ2 subunit cDNAs (1.5 ng/30 nL) was injected into the oocyte nucleus using a 10 μL glass micropipette (10-15 μm tip diameter). The injected oocytes were cultured at 19° C. in sterile MBS supplemented with streptomycin (10 μg/mL), penicillin (10 U/mL), gentamicin (50 μg/mL), 0.5 mM theophylline, and 2 mM sodium pyruvate. Electrophysiological recordings began approximately 24 h following cDNA injection. Oocytes were placed in a 100-μL rectangular chamber and continuously perfused with MBS solution at a flow rate of 2 mL/min at room temperature. The animal pole of oocytes was impaled with two glass electrodes (0.5 to 3 MΩ) filled with filtered 3 M KCl and the voltage was clamped at −70 mV with an Axoclamp 2-B amplifier (Axon Instruments, Burlingame, Calif.). Currents were continuously recorded on a strip-chart recorder. Resting membrane potential usually ranged from −30 to −50 mV. Drugs were perfused for 20 s (7-10 s were required to reach equilibrium in the recording chamber). Intervals of 5 to 10 min were allowed between drug applications.

righting reflex = test: Anesthetic activity: loss of righting reflex; format: in vivo, rat; conditions: rats, i.p.; propofol and Diprivan 60 mg/kg, 6a 105 mg/kg (equimolar); mean ± s.e.m.
Method: The loss and reestablishment of righting responses, time of anesthesia induction, and sleeping time were also assessed. Rats (five per group) were treated with propofol and Diprivan®, both at a dose of 60 mg/kg, and an equimolar dose of compound 6a (105 mg/kg) and were continuously monitored for the loss of righting reflex (onset and duration). Propofol and its derivative 6a were dissolved in saline with a drop of Tween 80 per 5 mL and administered intraperitoneally in a volume of 0.3 mL per 100 g of body mass. Anesthesia induction (sleep onset) was defined as the time from drug administration to loss of righting reflex, whereas the sleeping time was the time from the loss of the righting reflex until the animals were plantigrade on all four legs. The significance of differences in behavioral data were analyzed by the ANOVA test.

[6] = propofol 40 mg/kg i.p. or equimolar dose
[7] = unwashed rat cortical membranes

Compound	IC50 (GABAA receptor) [µM]	solubility at 72 h [1] [mg/mL]	half-life [2] [h]	Cleaved quantitatively to the parent drug in rat serum [2]	half-life [3] [h]	half-life (porcine liver esterase; 13 U/mL) [h]	Cleaved quantitatively to the parent drug in porcine liver esterase solution (porcine liver esterase)	Protection of animals against pentylenetetrazole-induced convulsions ([4]; dose equimolar to 40 mg/kg propofol, i.p.) [%]	Anticonvulsant activity, No. of rats protected/tested [4, 6]	Concentration of maximal effect on GABA-evoked chloride currents [5] [µM]	Effect on GABA-evoked chloride currents [5]	Effect on [35S]TBPS binding (GABAA receptor; [7])	Solubility (mg/mL) in deionized water [1] [mg/mL]	Half-lives at 37° C., Porcine liver esterase (13 U/mL) (porcine liver esterase; 13 U/mL) [h]	Protection of animals against pentylenetetrazole-induced convulsions [4, 6]	Loss of righting reflex, LRR, Duration (righting reflex) [s]	Loss of righting reflex, LRR, Onset (righting reflex)	IC50 (GABAA receptor; hydrochloride) [µM]	Doses at which [35S]TBPS binding is reduced (GABAA receptor; [7])	half-life at 48 h ([3]; read-out: Half-lives at 37° C., pH 7.4 buffer (stability class)) [h]
CC(C)c1cccc(C(C)C)c1OC(=O)C1CCCCN1 (racemic) [Compound 6b, propofol pipecolinate]	39.5	13.4 (≈ 46.3 mM)	0.0417	cleaved quantitatively	7	0.217	cleaved quantitatively	–	–	–	–	–	–	–	–	–	–	–	–	–
CC(C)c1cccc(C(C)C)c1OC(=O)C1CCNCC1 [Compound 6d, propofol isonipecotate]	–	–	–	–	–	–	not	60	6/10	100	diminished	increase of [^35S]TBPS binding	29.7 (≈ 103 mM)	45	–	–	–	–	–	–
CC(C)c1cccc(C(C)C)c1OC(=O)[C@@H]1CCCN1 [Compound 6a, 2.6-diisopropylphenyl pirrolidin-2-carboxylate hydrochloride]	–	350	0.283	cleaved quantitatively	6	0.283	cleaved quantitatively	–	10/10	50	enhanced	–	–	–	protected completely	2403 ± 592	162.7 ± 4.3^c,d sec	31.7	–	–
CC(C)c1cccc(C(C)C)c1O [Compound 1, 2,6-diisopropylphenol, reference compound]	4.17	~0.15 (≈ 0.841 mM)	–	–	–	–	–	–	10/10	–	–	–	–	–	protected completely	2245 ± 252	114.4 ± 9.5 s	–	–	–
CC(C)c1cccc(C(C)C)c1OC(=O)C1CCCNC1 (racemic) [Compound 6c]	152	525 (≈ 1810 mM)	6	not	–	3	not	–	–	–	–	–	–	–	–	–	–	–	higher than 100 μM	> 48
